*1 amine or outer side, *2 acyl side, *3 side chain or, on linkers, in order; H or OH if unused. Where a SMILES comes first, the peptide text is derived from it. Bridges are numbered along the chain shown (N, C = ends). [ ]: non-standard residue; d: D form. The star is where a group is joined. ξ: configuration not given here. Phe(3-CF3) = N[C@@H](Cc1cccc(C(F)(F)F)c1)C(=O)O; Phe(4-COOH) = N[C@@H](Cc1ccc(C(=O)O)cc1)C(=O)O; Bip = N[C@@H](Cc1ccc(-c2ccccc2)cc1)C(=O)O; Phe(3-Me) = Cc1cccc(C[C@H](N)C(=O)O)c1; γGlu = O=C(O)[C@H](CCC(=O)[*:2])N[*:1]; βAsp = O=C(O)[C@H](CC(=O)[*:2])N[*:1]; NH(CH2)12COOH = O=C(O)CCCCCCCCCCCCN*; Val(3-OH) = CC(C)(O)[C@H](N)C(=O)O; hPhe = N[C@@H](CCc1ccccc1)C(=O)O; 4Pal = N[C@@H](Cc1ccncc1)C(=O)O; Cha = N[C@@H](CC1CCCCC1)C(=O)O; Cit = NC(=O)NCCC[C@H](N)C(=O)O; Ile(3ξ) = CCC(C)[C@H](N)C(=O)O; Thr(3ξ) = CC(O)[C@H](N)C(=O)O; Carboxymethyl = O=C(O)C*; NMeA = CN[C@@H](C)C(=O)O; Orn = NCCC[C@H](N)C(=O)O; Aun = NCCCCCCCCCCC(=O)O; Dab = NCC[C@H](N)C(=O)O; AEEA = NCCOCCOCC(=O)O; Sar = CNCC(=O)O

These results are taken from patent US20260070945A1, “MACROCYCLIC IMMUNOMODULATORS” (Bristol-Myers Squibb Company, priority 2022, published 2026).

In the first experiment the target is T1, PD-1/PD-L1 interaction (PE-labeled human PD-L1-Ig binding to Jurkat cell line over-expressing human PD-1) (Homo sapiens, UniProt Q15116).
T1 construct: expressed in transfected cells; host or cells: Jurkat
T1 sequence (Q15116 25-288): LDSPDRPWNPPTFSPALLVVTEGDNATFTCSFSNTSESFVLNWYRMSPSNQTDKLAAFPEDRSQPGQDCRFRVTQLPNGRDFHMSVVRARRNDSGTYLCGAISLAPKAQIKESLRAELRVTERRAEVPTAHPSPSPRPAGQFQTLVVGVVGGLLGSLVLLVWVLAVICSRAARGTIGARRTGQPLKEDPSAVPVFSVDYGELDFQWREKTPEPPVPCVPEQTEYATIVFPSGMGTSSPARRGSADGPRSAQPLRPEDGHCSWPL
Nature of the experiment: Jurkat-PD-1 Cell Binding High-Content Screening Assay (CBA). The note with it: Jurkat-hPD-1 cells, PE-labeled PD-L1-Ig 20 nM final; read-out: Jurkat HPD1 PDL1 IC50. In outline:
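Jurkat-hPD-1 cells (8×10^3/well) in DMEM with 10% fetal calf serum were preincubated with compound for 2 h at 37 °C. PE-labeled PD-L1-Ig was then added at 20 nM final for 1 h. Cells were fixed in paraformaldehyde with Hoechst 33342, washed and imaged by high-content imaging.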
`CC(C)C[C@@H]1NC(=O)[C@H](Cc2c[nH]c3ccccc23)NC(=O)[C@H](CC(=O)O)NC(=O)[C@H](Cc2ccc(OCC(=O)O)cc2)NC(=O)[C@H](Cc2ccccc2)NC(=O)CSC[C@@H](C(=O)N[C@@H](CCCN)C(=O)NCCCCCCCCCCC(=O)O)NC(=O)[C@H](CCC(N)=O)NC(=O)[C@H](C(C)C)NC(=O)[C@H](CC(C)C)NC(=O)[C@H](CC(N)=O)NC(=O)[C@@H](CC(C)C)NC(=O)[C@H](C)N(C)C(=O)[C@H](C(C)C)NC(=O)[C@H](Cc2ccc(-c3ccccc3)cc2)NC1=O` [Example 1345] ({CH2CO}-FY(Carboxymethyl)DWL[Bip]V[NMeA][dL]NLVQC[Orn][Aun]-OH; thioether N-14): the half-maximal inhibitory concentration (IC50) was 118 nM.

With `CCC(C)[C@@H]1NC(=O)[C@H](Cc2ccc(-c3ccccc3)cc2)NC(=O)[C@H](C(C)C)NC(=O)[C@H](Cc2cccc(C)c2)NC(=O)[C@H](CC(=O)O)NC(=O)[C@H](Cc2ccc(OCC(=O)O)cc2)NC(=O)[C@H](CCCNC(=N)N)NC(=O)CSC[C@@H](C(=O)N[C@H](CC(N)=O)C(=O)NCCCCCCCCCCC(=O)O)NC(=O)[C@H](CCCNC(N)=O)NC(=O)[C@H](C(C)C)NC(=O)[C@H](CC2CCCCC2)NC(=O)[C@H](CCN)NC(=O)[C@@H](CC(C)C)NC(=O)[C@H](C)N(C)C1=O` (stereo partly drawn) [Example 2288] ({CH2CO}-RY(Carboxymethyl)D[Phe(3-Me)]V[Bip][Ile(3ξ)][NMeA][dL][Dab][Cha]V[Cit]C[dN][Aun]-OH; thioether N-14), the 50% inhibitory concentration (IC50) was determined as 12.9 nM.

`Cc1cccc(C[C@@H]2NC(=O)[C@H](CC(=O)O)NC(=O)[C@H](Cc3ccc(OCC(=O)O)cc3)NC(=O)[C@H](CC(N)=O)NC(=O)CSC[C@@H](C(=O)N(C)CC(=O)NCCCCCCCCCCC(=O)O)NC(=O)[C@H](CCCNC(N)=O)NC(=O)[C@H](C(C)C)NC(=O)[C@H](CC3CCCCC3)NC(=O)[C@H](CCN)NC(=O)[C@@H](CC(C)C)NC(=O)[C@H](C)N(C)C(=O)[C@H](C(C)C)NC(=O)[C@H](Cc3ccc(-c4ccccc4)cc3)NC(=O)[C@H](C(C)C)NC2=O)c1` [Example 2261] ({CH2CO}-NY(Carboxymethyl)D[Phe(3-Me)]V[Bip]V[NMeA][dL][Dab][Cha]V[Cit]C[Sar][Aun]-OH; thioether N-14): the IC50 came to 25.8 nM.

Turning to `CCC(C)[C@@H]1NC(=O)[C@H](Cc2ccc(-c3ccccc3)cc2)NC(=O)[C@H](C(C)C)NC(=O)[C@H](Cc2c[nH]c3ccccc23)NC(=O)[C@H](CC(=O)O)NC(=O)[C@H](Cc2ccc(OCC(=O)O)cc2)NC(=O)[C@H](C(C)O)NC(=O)CSC[C@@H](C(=O)N[C@@H](C)C(=O)NCCOCCOCC(=O)N[C@@H](CCC(=O)NCCOCCOCC(=O)N[C@@H](CCC(=O)NCCOCCOCC(=O)N[C@@H](CCCCN)C(=O)NCCCCCCCCCCCCC(=O)O)C(=O)O)C(=O)O)NC(=O)[C@H](C(C)O)NC(=O)[C@H](C(C)C)NC(=O)[C@H](CC2CCCCC2)NC(=O)[C@H](CCN)NC(=O)[C@@H](CC(C)C)NC(=O)[C@H](C)N(C)C1=O` (stereo partly drawn) [Example 2009] ({CH2CO}-[Thr(3ξ)]Y(Carboxymethyl)DWV[Bip][Ile(3ξ)][NMeA][dL][Dab][Cha]V[Thr(3ξ)]CA[AEEA][γGlu][AEEA][γGlu][AEEA]K-{NH(CH2)12COOH}; thioether N-14), the IC50 amounted to 58.3 nM.

As for `Cc1cccc(C[C@@H]2NC(=O)[C@H](CC(=O)O)NC(=O)[C@H](Cc3ccc(OCC(=O)O)cc3)NC(=O)[C@H](CCc3ccccc3)NC(=O)CSC[C@@H](C(=O)N[C@@H](CCN)C(=O)NCCCCCCCCCCC(=O)O)NC(=O)[C@H](CO)NC(=O)[C@H](C(C)C)NC(=O)[C@H](CC3CCCCC3)NC(=O)[C@H](CCN)NC(=O)[C@@H](CC(C)C)NC(=O)[C@H](C)N(C)C(=O)[C@H](Cc3ccc(O)cc3)NC(=O)[C@H](Cc3ccc(-c4ccccc4)cc3)NC(=O)[C@H](Cc3ccc(OCC(=O)O)cc3)NC2=O)c1` [Example 1276] ({CH2CO}-[hPhe]Y(Carboxymethyl)D[Phe(3-Me)]Y(Carboxymethyl)[Bip]Y[NMeA][dL][Dab][Cha]VSC[Dab][Aun]-OH; thioether N-14), the concentration for half-maximal inhibition (IC50) came out at 142 nM.

For the compound `Cc1cccc(C[C@@H]2NC(=O)[C@H](CC(=O)O)NC(=O)[C@H](Cc3ccc(C(=O)O)cc3)NC(=O)[C@H](Cc3ccc(OCC(=O)O)cc3)NC(=O)CSC[C@@H](C(=O)NCC(=O)N[C@@H](CC(=O)O)C(=O)NCCOCCOCC(=O)N[C@@H](CC(=O)NCCOCCOCC(=O)NCCCCCCCCCCC(=O)O)C(=O)O)NC(=O)[C@H](CO)NC(=O)[C@H](C(C)C)NC(=O)[C@H](CC(C)C)NC(=O)[C@H](CC(N)=O)NC(=O)[C@@H](CC(C)C)NC(=O)[C@H](C)N(C)C(=O)[C@H](C(C)C)NC(=O)[C@H](Cc3ccc(-c4ccccc4)cc3)NC(=O)[C@H](CC(C)C)NC2=O)c1` [Example 1022] ({CH2CO}-Y(Carboxymethyl)[Phe(4-COOH)]D[Phe(3-Me)]L[Bip]V[NMeA][dL]NLVSCGD[AEEA][βAsp][AEEA][Aun]-OH; thioether N-14), the half-maximal inhibitory concentration (IC50) was found to be 76.6 nM.

Turning to `Cc1cccc(C[C@@H]2NC(=O)[C@H](CC(=O)O)NC(=O)[C@H](Cc3ccc(OCC(=O)O)cc3)NC(=O)[C@H](C(C)O)NC(=O)CSC[C@@H](C(=O)N[C@H](CC(N)=O)C(=O)NCCCCCCCCCCC(=O)O)NC(=O)[C@H](C(C)O)NC(=O)[C@H](C(C)C)NC(=O)[C@H](CC3CCCCC3)NC(=O)[C@H](CCN)NC(=O)[C@@H](CC(C)C)NC(=O)[C@H](C)N(C)C(=O)[C@H](Cc3ccc(O)cc3)NC(=O)[C@H](Cc3ccc(-c4ccccc4)cc3)NC(=O)[C@H](Cc3ccc(O)cc3)NC2=O)c1` (stereo partly drawn) [Example 2314] ({CH2CO}-[Thr(3ξ)]Y(Carboxymethyl)D[Phe(3-Me)]Y[Bip]Y[NMeA][dL][Dab][Cha]V[Thr(3ξ)]C[dN][Aun]-OH; thioether N-14), the 50% inhibitory concentration (IC50) was found to be 21.7 nM.

As to `Cc1cccc(C[C@@H]2NC(=O)[C@H](CC(=O)O)NC(=O)[C@H](Cc3ccncc3)NC(=O)[C@H](Cc3ccc(OCC(=O)O)cc3)NC(=O)CSC[C@@H](C(=O)N[C@@H](CCCN)C(=O)NCCOCCOCC(=O)NCCCCCCCCCCC(=O)O)NC(=O)[C@H]([C@@H](C)O)NC(=O)[C@H](C(C)C)NC(=O)[C@H](CC3CCCCC3)NC(=O)[C@H](CCN)NC(=O)[C@@H](CC(C)C)NC(=O)[C@H](C)N(C)C(=O)[C@H](Cc3ccc(OCC(=O)O)cc3)NC(=O)[C@H](Cc3ccc(-c4ccccc4)cc3)NC(=O)[C@H](Cc3ccc(OCC(=O)O)cc3)NC2=O)c1` [Example 1361] ({CH2CO}-Y(Carboxymethyl)[4Pal]D[Phe(3-Me)]Y(Carboxymethyl)[Bip]Y(Carboxymethyl)[NMeA][dL][Dab][Cha]VTC[Orn][AEEA][Aun]-OH; thioether N-14), the IC50 worked out at 16.1 nM.

`Cc1cccc(C[C@@H]2NC(=O)[C@H](CC(=O)O)NC(=O)[C@H](Cc3ccc(C(=O)O)cc3)NC(=O)[C@H](Cc3ccc(OCC(=O)O)cc3)NC(=O)CSC[C@@H](C(=O)NCC(=O)N[C@@H](CCC(=O)O)C(=O)NCCCCCCCCCCC(=O)O)NC(=O)[C@H](CO)NC(=O)[C@H](C(C)C)NC(=O)[C@H](CC(C)C)NC(=O)[C@H](CC(N)=O)NC(=O)[C@@H](CC(C)C)NC(=O)[C@H](C)N(C)C(=O)[C@H](C(C)C)NC(=O)[C@H](Cc3ccc(-c4ccccc4)cc3)NC(=O)[C@H](CC(C)C)NC2=O)c1` [Example 1005] ({CH2CO}-Y(Carboxymethyl)[Phe(4-COOH)]D[Phe(3-Me)]L[Bip]V[NMeA][dL]NLVSCGE[Aun]-OH; thioether N-14): the IC50 came to 49.5 nM.

Still in this experiment, the particulars now being: PE-labeled PD-L1-Ig 20 nM final, Jurkat-hPD-1 cells; read-out: Jurkat HPD1 PDL1 IC50.
Regarding `CC(C)C[C@H]1NC(=O)[C@H](C)N(C)C(=O)[C@H](CCC(N)=O)NC(=O)[C@H](Cc2ccc(-c3ccccc3)cc2)NC(=O)[C@H](C(C)C)NC(=O)[C@H](Cc2c[nH]c3ccccc23)NC(=O)[C@H](CC(=O)O)NC(=O)[C@H](Cc2ccc(OCC(=O)O)cc2)NC(=O)[C@H](Cc2ccncc2)NC(=O)CSC[C@@H](C(=O)N[C@@H](CCN)C(=O)NCCOCCOCC(=O)NCCCCCCCCCCC(=O)O)NC(=O)[C@H](CCC(=O)O)NC(=O)[C@H](C(C)C)NC(=O)[C@H](CC2CCCCC2)NC(=O)[C@H](CCN)NC1=O` [Example 2492] ({CH2CO}-[4Pal]Y(Carboxymethyl)DWV[Bip]Q[NMeA][dL][Dab][Cha]VEC[Dab][AEEA][Aun]-OH; thioether N-14), the IC50 is 31.1 nM.

On to `CC(=O)NCCCC[C@@H]1NC(=O)[C@H](C(C)C)NC(=O)[C@H](CC2CCCCC2)NC(=O)[C@H](CCN)NC(=O)[C@@H](CC(C)C)NC(=O)[C@H](C)N(C)C(=O)[C@H](CCC(N)=O)NC(=O)[C@H](Cc2ccc(-c3ccccc3)cc2)NC(=O)[C@H](Cc2ccc(C(=O)O)cc2)NC(=O)[C@H](Cc2cccc(C(F)(F)F)c2)NC(=O)[C@H](CC(=O)O)NC(=O)[C@H](Cc2ccc(OCC(=O)O)cc2)NC(=O)[C@H](Cc2ccc(OCC(=O)O)cc2)NC(=O)CSC[C@@H](C(=O)N[C@@H](CCN)C(=O)NCCOCCOCC(=O)NCCCCCCCCCCC(=O)O)NC1=O` [Example 2598] ({CH2CO}-Y(Carboxymethyl)Y(Carboxymethyl)D[Phe(3-CF3)][Phe(4-COOH)][Bip]Q[NMeA][dL][Dab][Cha]VK(Ac)C[Dab][AEEA][Aun]-OH; thioether N-14), for which the concentration for half-maximal inhibition (IC50) was 2.8 nM.

Consider `Cc1cccc(C[C@@H]2NC(=O)[C@H](CC(=O)O)NC(=O)[C@H](Cc3ccc(OCC(=O)O)cc3)NC(=O)[C@H](Cc3ccncc3)NC(=O)CSC[C@@H](C(=O)N[C@@H](CO)C(=O)NCCOCCOCC(=O)NCCCCCCCCCCC(=O)O)NC(=O)[C@H](CCC(=O)O)NC(=O)[C@H](C(C)(C)O)NC(=O)[C@H](CC3CCCCC3)NC(=O)[C@H](CCN)NC(=O)[C@@H](CC(C)C)NC(=O)[C@H](C)N(C)C(=O)[C@H](Cc3ccc(C(=O)O)cc3)NC(=O)[C@H](Cc3ccc(-c4ccccc4)cc3)NC(=O)[C@H](Cc3ccc(C(=O)O)cc3)NC2=O)c1` [Example 2496] ({CH2CO}-[4Pal]Y(Carboxymethyl)D[Phe(3-Me)][Phe(4-COOH)][Bip][Phe(4-COOH)][NMeA][dL][Dab][Cha][Val(3-OH)]ECS[AEEA][Aun]-OH; thioether N-14), for which the half-maximal inhibitory concentration (IC50) came to 67.1 nM.

One may read the IC50 as the point on the concentration scale where inhibition reaches its midpoint.
